Measured values: patent US20190070170A1, “METHOD OF S[…]-1” (Macau University of Science and Technology, priority 2017, published 2019)

Columns and labels:
[1] = test system: cPLA2; assay: cPLA2 protein expression in LPS-activated rat peritoneal macrophages (western blotting); assay type: cell-based; conditions: SIN or DEX 1 h, LPS 24 h
Protocol: (§1) Sprague-Dawley (SD) rats from the University of Hong Kong were housed in cages with free access to food and water. Peritoneal macrophages of SD rats were isolated as described in Liu J. et al., Pharmacological research 2016, 111:303-315. Briefly, untreated rats were sacrificed and after laparotomy, about 50 ml cold sterile Hank's balanced salt solution (HBSS) was used to lavage the peritoneal cavity at twice, and then the peritoneal lavage fluid was collected and centrifuged at 1500 rpm for 10 min. The cell pellets was suspended at a density 1.5×10^6 cells/ml in pre-hearted DMEM medium with 10% heat-inactivated FBS, penicillin G (100 units/ml), streptomycin ([…]), and L-glutamine (2 mM), followed by seeding in 6-well plates at a density of 4.5×10^6 cells and incubation for 2 h. Then the medium were discarded to remove the non-adherent cells. The adherent cells were further washed for two times with pre-heated DMEM medium to remove floating cells. Next, cells were pre-treated with various concentration of SIN for 1 h, followed by stimulation with LPS (1 μg/ml).
(§2) Whole-cell and nuclear proteins were obtained using RIPA lysis buffer (CST, Boston, Mass., USA) and Nuclear and Cytoplasmic Extraction Reagents kit from Thermo Scientific (Asheville, N.C., USA), respectively. […] The levels of protein expression were measured using Odyssey v3.0 software from Li-COR (Lincoln, Nebr., USA).

[2] = test system: TNF-α; assay: TNF-α level in LPS-stimulated RAW264.7 cells (ELISA); assay type: cell-based, mouse; conditions: pretreatment 1 h, LPS 100 ng/ml 18 h
Protocol: RAW264.7 and A549 cell lines were obtained from American Type Culture Collection (ATCC, Manassas, Va., USA) and maintained in DMEM (RAW264.7) or 1640 (A549) medium containing 10% FBS (Gibco-BRL, Grand Island, N.Y., USA) and antibiotics at 37° C. in a humidified atmosphere containing 5% CO2. RAW264.7 cells were plated in 6-well plates at a density of 4×10^5 cells and incubated for 24 h, then the cells were pretreated with different concentrations of SIN for 1 h before stimulating with LPS (100 ng/ml). A549 cells were seeded in 6-well plates at a density of 1×10^5 cells and incubated for 24 h, followed by pretreatment with SIN. A549 cells were then stimulated by IL-1β (1 ng/ml).
RAW264.7 cells and rat peritoneal macrophages were seeded in a 96-well plate at density of 1.4×10^4 and 1.5×10^5 cells, respectively. Various concentration of SIN was added to the cells for 1 hour before LPS stimulation. After stimulation with LPS for 18 h (RAW264.7 cells) or 24 h (rat peritoneal macrophages), MTT solution was added to each well and incubated for another 4 hours. 100 μl 10% SDS-HCl solution was added to each well for overnight to dissolve the formazan dye. The optical density was measured at 570 nm against a reference wavelength of 650 nm using a microplate UV/VIS spectrophotometer (Tecan, Mannedorf, Switzerland). […]

[3] = test system: NO; assay: NO production in LPS-stimulated rat peritoneal macrophages (Griess reagent); assay type: cell-based; conditions: pretreatment 1 h, LPS 1 μg/ml 24 h
Protocol: as §1
(§3) RAW264.7 cells and rat peritoneal macrophages were seeded in a 96-well plate at density of 1.4×10^4 and 1.5×10^5 cells, respectively. […] The optical density was measured at 570 nm against a reference wavelength of 650 nm using a microplate UV/VIS spectrophotometer (Tecan, Mannedorf, Switzerland). […]

[4] = test system: PGE2; assay: RNA interference experiment of mPGES-1: PGE2 production in mPGES-1 knockdown RAW264.7 cells; assay type: cell-based, mouse; conditions: mPGES-1 siRNA RAW264.7 cells; SIN 640 μM or DEX 0.5 μM 1 h, LPS 10 ng/mL 18 h
Protocol: RAW264.7 cells were transfected with ON-TARGETplus SMARTpool mPGES-1 siRNA (mPGES-1 siRNA) or nonspecific siRNA (NS siRNA) using HiPerFect transfection reagent according to the manufacturer's recommended protocols. After 24 h of transfection, the cells were treated with or without SIN (640 μM) or DEX (0.5 μM) in complete growth medium. After 1 h, all groups were stimulated with LPS (10 ng/mL) for 18 h except the control group. Then the cell culture media were collected and stored at −20° C. for later analysis of the levels of PGE2. Cells were harvested for qRT-PCR, the mouse primers used are listed as follows: […]

[5] = test system: PGE2; assay: PGE2 production in LPS-stimulated rat peritoneal macrophages (ELISA); assay type: cell-based; conditions: SIN 160, 320 or 640 μM or 0.5 μM DEX 1 h, then LPS 1 μg/ml 24 h
Protocol: as §1, §3

[6] = test system: PGI2; assay: PGI2 level in culture supernatants of LPS-activated rat peritoneal macrophages (ELISA); assay type: cell-based; conditions: LPS-stimulated rat peritoneal macrophages, culture supernatant
Protocol: as §1, §3

[7] = test system: mitogen-activated protein kinase (MAPK); assay: MAPK pathway (p-JNK, p-p38, p-ERK, p-c-Jun) in LPS-stimulated rat peritoneal macrophages (western blotting); assay type: cell-based; conditions: SIN 1 h, LPS 1 μg/ml 15 min or 1 h
Protocol: as §1, §2

COC1=C[C@@H]2[C@@H]3Cc4ccc(OC)c(O)c4[C@]2(CCN3C)CC1=O [SIN, sinomenine]
cPLA2 expression [1]: no influences | TNF-α production [2]: significantly inhibited | NO production (nitrite) [3]: significantly inhibited | change of the compound's inhibitory effect on PGE2 production by mPGES-1 knockdown [4]: not affected | PGE2 production [5]: significant inhibition of PGE2 production in a dose dependent manner | level of PGI2 [6]: no significant influence | influence on MAPK pathway [7]: No observable effects
